# Where a SMILES comes first, the peptide text is derived from it. Bridges are numbered along the chain shown (N, C = ends). [ ]: non-standard residue; d: D form. The star is where a group is joined. hPhe(3-Cl-4-CF3) = N[C@@H](CCc1ccc(C(F)(F)F)c(Cl)c1)C(=O)O; NPrPhe(4-CF3) = CCCN[C@@H](Cc1ccc(C(F)(F)F)cc1)C(=O)O; Piperazinyl(4-(3-oxetanyl)) = C1OCC1N1CCN(*)CC1; 3Oxa8azabicyclo(3.2.1)octane = C1CC2COCC1N2*; NMeAbu(4,4,4-F3) = CN[C@@H](CC(F)(F)F)C(=O)O; NMeGly(cPent) = CN[C@H](C(=O)O)C1CCCC1; NMeGly(cBu) = CN[C@H](C(=O)O)C1CCC1; Piperidide(4-Me) = CC1CCN(*)CC1; NMeD = CN[C@@H](CC(=O)O)C(=O)O; NMeL = CN[C@@H](CC(C)C)C(=O)O; Oxazolidin(3-yl) = C1CN(*)CO1; NMeNva = CCC[C@H](NC)C(=O)O; Azetidin(1-yl) = C1CN(*)C1; NMeAbu = CC[C@H](NC)C(=O)O; Morpholide = C1CN(*)CCO1; NMeA = CN[C@@H](C)C(=O)O; Piperidide = C1CCN(*)CC1; Pyrrolidide = C1CCN(*)C1; Ac5c = NC1(C(=O)O)CCCC1; Aze = O=C(O)[C@@H]1CCN1; X25 = CC1(C)CCN(*)C1; Sar = CNCC(=O)O
# Legend:
# [1] = biological target: GDP-bound NRAS wild-type protein (Homo sapiens, UniProt P01111); assay: Binding to NRAS by surface plasmon resonance (SPR), Single Cycle Kinetics; settings: KD ratio NRAS/KRAS, SPR
# GDP-bound NRAS wild-type protein, sequence (P01111 whole entry): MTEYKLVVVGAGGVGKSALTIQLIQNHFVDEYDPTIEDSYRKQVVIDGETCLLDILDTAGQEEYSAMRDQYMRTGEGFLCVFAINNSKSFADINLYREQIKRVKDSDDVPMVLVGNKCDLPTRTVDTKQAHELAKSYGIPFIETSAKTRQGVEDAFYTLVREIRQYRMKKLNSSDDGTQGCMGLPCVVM
# [2] = biological target: GDP-bound HRAS wild-type protein (Homo sapiens, UniProt P01112); assay: Binding to HRAS by surface plasmon resonance (SPR), Single Cycle Kinetics; settings: KD ratio HRAS/KRAS, SPR
# GDP-bound HRAS wild-type protein, sequence (P01112 whole entry): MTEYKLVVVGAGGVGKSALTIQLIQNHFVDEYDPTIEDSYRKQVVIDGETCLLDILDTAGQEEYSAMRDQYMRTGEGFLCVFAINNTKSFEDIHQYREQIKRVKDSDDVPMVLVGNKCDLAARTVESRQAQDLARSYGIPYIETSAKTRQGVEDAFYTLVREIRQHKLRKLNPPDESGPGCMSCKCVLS
Compound,NRAS/KRAS (ratio of KD for GDP-bound NRAS wild-type to KD for KRAS) [1],HRAS/KRAS (ratio of KD for GDP-bound HRAS wild-type to KD for KRAS) [2]
CCCN1C(=O)[C@@H]2CCN2C(=O)[C@H](C)N(C)C(=O)[C@H]([C@@H](C)CC)NC(=O)[C@H](CC(C)C)N(C)C(=O)C[C@@H](C(=O)N(C)C)N(C)C(=O)[C@H](C2CCCC2)N(C)C(=O)C2(CCCC2)NC(=O)[C@@H]2CCCN2C(=O)[C@H](CCc2ccc(C(F)(F)F)c(Cl)c2)NC(=O)CN(C)C(=O)[C@@H]1Cc1ccc(C(F)(F)F)cc1 [PP0178] ([NMeL]I[NMeA][Aze][NPrPhe(4-CF3)][Sar][hPhe(3-Cl-4-CF3)]P[Ac5c][NMeGly(cPent)][NMeD]-NMe2; lactam N-11),C (A compound having a KD ratio of 0.1 or more and less than 3 is denoted as C),B (a compound having 3 or more and less than 10 is denoted as B)
CCCN1C(=O)[C@@H]2CCN2C(=O)[C@H](C)N(C)C(=O)[C@H]([C@@H](C)CC)NC(=O)[C@H](CC(C)C)N(C)C(=O)C[C@@H](C(=O)N2CCCC2)N(C)C(=O)[C@H](C2CCCC2)N(C)C(=O)C2(CCCC2)NC(=O)[C@@H]2CCCN2C(=O)[C@H](CCc2ccc(C(F)(F)F)c(Cl)c2)NC(=O)CN(C)C(=O)[C@@H]1Cc1ccc(C(F)(F)F)cc1 [PP0179] ([NMeL]I[NMeA][Aze][NPrPhe(4-CF3)][Sar][hPhe(3-Cl-4-CF3)]P[Ac5c][NMeGly(cPent)][NMeD]-Pyrrolidide; lactam N-11),C (A compound having a KD ratio of 0.1 or more and less than 3 is denoted as C),B (a compound having 3 or more and less than 10 is denoted as B)
CCCN1C(=O)[C@@H]2CCN2C(=O)[C@H](C)N(C)C(=O)[C@H]([C@@H](C)CC)NC(=O)[C@H](CC(C)C)N(C)C(=O)C[C@@H](C(=O)N2CCCCC2)N(C)C(=O)[C@H](C2CCCC2)N(C)C(=O)C2(CCCC2)NC(=O)[C@@H]2CCCN2C(=O)[C@H](CCc2ccc(C(F)(F)F)c(Cl)c2)NC(=O)CN(C)C(=O)[C@@H]1Cc1ccc(C(F)(F)F)cc1 [PP0180] ([NMeL]I[NMeA][Aze][NPrPhe(4-CF3)][Sar][hPhe(3-Cl-4-CF3)]P[Ac5c][NMeGly(cPent)][NMeD]-Piperidide; lactam N-11),C (A compound having a KD ratio of 0.1 or more and less than 3 is denoted as C),C (A compound having a KD ratio of 0.1 or more and less than 3 is denoted as C)
CCCN1C(=O)[C@@H]2CCN2C(=O)[C@H](C)N(C)C(=O)[C@H]([C@@H](C)CC)NC(=O)[C@H](CC(C)C)N(C)C(=O)C[C@@H](C(=O)N2CCC2)N(C)C(=O)[C@H](C2CCCC2)N(C)C(=O)C2(CCCC2)NC(=O)[C@@H]2CCCN2C(=O)[C@H](CCc2ccc(C(F)(F)F)c(Cl)c2)NC(=O)CN(C)C(=O)[C@@H]1Cc1ccc(C(F)(F)F)cc1 [PP0181] ([NMeL]I[NMeA][Aze][NPrPhe(4-CF3)][Sar][hPhe(3-Cl-4-CF3)]P[Ac5c][NMeGly(cPent)][NMeD]-{Azetidin(1-yl)}; lactam N-11),C (A compound having a KD ratio of 0.1 or more and less than 3 is denoted as C),B (a compound having 3 or more and less than 10 is denoted as B)
CCCN1C(=O)[C@@H]2CCN2C(=O)[C@H](C)N(C)C(=O)[C@H]([C@@H](C)CC)NC(=O)[C@H](CC(C)C)N(C)C(=O)C[C@@H](C(=O)N2C3CCC2COC3)N(C)C(=O)[C@H](C2CCCC2)N(C)C(=O)C2(CCCC2)NC(=O)[C@@H]2CCCN2C(=O)[C@H](CCc2ccc(C(F)(F)F)c(Cl)c2)NC(=O)CN(C)C(=O)[C@@H]1Cc1ccc(C(F)(F)F)cc1 [PP0182] ([NMeL]I[NMeA][Aze][NPrPhe(4-CF3)][Sar][hPhe(3-Cl-4-CF3)]P[Ac5c][NMeGly(cPent)][NMeD]-{3Oxa8azabicyclo(3.2.1)octane}; lactam N-11),C (A compound having a KD ratio of 0.1 or more and less than 3 is denoted as C),B (a compound having 3 or more and less than 10 is denoted as B)
CCCN1C(=O)[C@@H]2CCN2C(=O)[C@H](C)N(C)C(=O)[C@H]([C@@H](C)CC)NC(=O)[C@H](CC(C)C)N(C)C(=O)C[C@@H](C(=O)N2CCOC2)N(C)C(=O)[C@H](C2CCCC2)N(C)C(=O)C2(CCCC2)NC(=O)[C@@H]2CCCN2C(=O)[C@H](CCc2ccc(C(F)(F)F)c(Cl)c2)NC(=O)CN(C)C(=O)[C@@H]1Cc1ccc(C(F)(F)F)cc1 [PP0183] ([NMeL]I[NMeA][Aze][NPrPhe(4-CF3)][Sar][hPhe(3-Cl-4-CF3)]P[Ac5c][NMeGly(cPent)][NMeD]-{Oxazolidin(3-yl)}; lactam N-11),C (A compound having a KD ratio of 0.1 or more and less than 3 is denoted as C),B (a compound having 3 or more and less than 10 is denoted as B)
CCCN1C(=O)[C@@H]2CCN2C(=O)[C@H](C)N(C)C(=O)[C@H]([C@@H](C)CC)NC(=O)[C@H](CC(C)C)N(C)C(=O)C[C@@H](C(=O)N2CCN(C3COC3)CC2)N(C)C(=O)[C@H](C2CCCC2)N(C)C(=O)C2(CCCC2)NC(=O)[C@@H]2CCCN2C(=O)[C@H](CCc2ccc(C(F)(F)F)c(Cl)c2)NC(=O)CN(C)C(=O)[C@@H]1Cc1ccc(C(F)(F)F)cc1 [PP0184] ([NMeL]I[NMeA][Aze][NPrPhe(4-CF3)][Sar][hPhe(3-Cl-4-CF3)]P[Ac5c][NMeGly(cPent)][NMeD]-{Piperazinyl(4-(3-oxetanyl))}; lactam N-11),C (A compound having a KD ratio of 0.1 or more and less than 3 is denoted as C),B (a compound having 3 or more and less than 10 is denoted as B)
CCCN1C(=O)[C@@H]2CCN2C(=O)[C@H](C)N(C)C(=O)[C@H]([C@@H](C)CC)NC(=O)[C@H](CC(C)C)N(C)C(=O)C[C@@H](C(=O)N2CCC(C)CC2)N(C)C(=O)[C@H](C2CCCC2)N(C)C(=O)C2(CCCC2)NC(=O)[C@@H]2CCCN2C(=O)[C@H](CCc2ccc(C(F)(F)F)c(Cl)c2)NC(=O)CN(C)C(=O)[C@@H]1Cc1ccc(C(F)(F)F)cc1 [PP0185] ([NMeL]I[NMeA][Aze][NPrPhe(4-CF3)][Sar][hPhe(3-Cl-4-CF3)]P[Ac5c][NMeGly(cPent)][NMeD]-{Piperidide(4-Me)}; lactam N-11),C (A compound having a KD ratio of 0.1 or more and less than 3 is denoted as C),B (a compound having 3 or more and less than 10 is denoted as B)
CCCN1C(=O)[C@@H]2CCN2C(=O)[C@H](C)N(C)C(=O)[C@H]([C@@H](C)CC)NC(=O)[C@H](CC(C)C)N(C)C(=O)C[C@@H](C(=O)N2CCC(C)(C)C2)N(C)C(=O)[C@H](C2CCCC2)N(C)C(=O)C2(CCCC2)NC(=O)[C@@H]2CCCN2C(=O)[C@H](CCc2ccc(C(F)(F)F)c(Cl)c2)NC(=O)CN(C)C(=O)[C@@H]1Cc1ccc(C(F)(F)F)cc1 [PP0186] ([NMeL]I[NMeA][Aze][NPrPhe(4-CF3)][Sar][hPhe(3-Cl-4-CF3)]P[Ac5c][NMeGly(cPent)][NMeD]-X25; lactam N-11),C (A compound having a KD ratio of 0.1 or more and less than 3 is denoted as C),B (a compound having 3 or more and less than 10 is denoted as B)
"CCCN1C(=O)CN(C)C(=O)CN(C)C(=O)[C@H]([C@@H](C)CC)NC(=O)[C@H](CC(F)(F)F)N(C)C(=O)C[C@@H](C(=O)N2CCOCC2)N(C)C(=O)[C@H](C2CCCC2)N(C)C(=O)C2(CCCC2)NC(=O)[C@@H]2CCCN2C(=O)[C@H](CCc2ccc(C(F)(F)F)c(Cl)c2)NC(=O)CN(C)C(=O)[C@@H]1Cc1ccc(C(F)(F)F)cc1 [PP0187] ([NMeAbu(4,4,4-F3)]I[Sar][Sar][NPrPhe(4-CF3)][Sar][hPhe(3-Cl-4-CF3)]P[Ac5c][NMeGly(cPent)][NMeD]-Morpholide; lactam N-11)",B (a compound having 3 or more and less than 10 is denoted as B),C (A compound having a KD ratio of 0.1 or more and less than 3 is denoted as C)
CCCN1C(=O)CN(C)C(=O)CN(C)C(=O)[C@H]([C@@H](C)CC)NC(=O)[C@H](C2CCC2)N(C)C(=O)C[C@@H](C(=O)N2CCOCC2)N(C)C(=O)[C@H](C2CCCC2)N(C)C(=O)C2(CCCC2)NC(=O)[C@@H]2CCCN2C(=O)[C@H](CCc2ccc(C(F)(F)F)c(Cl)c2)NC(=O)CN(C)C(=O)[C@@H]1Cc1ccc(C(F)(F)F)cc1 [PP0188] ([NMeGly(cBu)]I[Sar][Sar][NPrPhe(4-CF3)][Sar][hPhe(3-Cl-4-CF3)]P[Ac5c][NMeGly(cPent)][NMeD]-Morpholide; lactam N-11),B (a compound having 3 or more and less than 10 is denoted as B),C (A compound having a KD ratio of 0.1 or more and less than 3 is denoted as C)
CCC[C@H]1C(=O)N[C@@H]([C@@H](C)CC)C(=O)N(C)CC(=O)N(C)CC(=O)N(CCC)[C@@H](Cc2ccc(C(F)(F)F)cc2)C(=O)N(C)CC(=O)N[C@@H](CCc2ccc(C(F)(F)F)c(Cl)c2)C(=O)N2CCC[C@H]2C(=O)NC2(CCCC2)C(=O)N(C)[C@@H](C2CCCC2)C(=O)N(C)[C@H](C(=O)N2CCOCC2)CC(=O)N1C [PP0189] ([NMeNva]I[Sar][Sar][NPrPhe(4-CF3)][Sar][hPhe(3-Cl-4-CF3)]P[Ac5c][NMeGly(cPent)][NMeD]-Morpholide; lactam N-11),B (a compound having 3 or more and less than 10 is denoted as B),C (A compound having a KD ratio of 0.1 or more and less than 3 is denoted as C)
CCCN1C(=O)CN(C)C(=O)CN(C)C(=O)[C@H]([C@@H](C)CC)NC(=O)[C@H](CC)N(C)C(=O)C[C@@H](C(=O)N2CCOCC2)N(C)C(=O)[C@H](C2CCCC2)N(C)C(=O)C2(CCCC2)NC(=O)[C@@H]2CCCN2C(=O)[C@H](CCc2ccc(C(F)(F)F)c(Cl)c2)NC(=O)CN(C)C(=O)[C@@H]1Cc1ccc(C(F)(F)F)cc1 [PP0190] ([NMeAbu]I[Sar][Sar][NPrPhe(4-CF3)][Sar][hPhe(3-Cl-4-CF3)]P[Ac5c][NMeGly(cPent)][NMeD]-Morpholide; lactam N-11),B (a compound having 3 or more and less than 10 is denoted as B),B (a compound having 3 or more and less than 10 is denoted as B)

# Reference: patent US20250230193A1, “CYCLIC COMPOUND HAVING SELECTIVE KRAS INHIBITORY EFFECT ON HRAS AND NRAS” (CHUGAI SEIYAKU KABUSHIKI KAISHA, priority 2022, published 2025)
